Results reported in US20230026271A1, “Piperazine Compounds for Inhibiting CPS1” (Eisai R&D Management Co., Ltd., priority 2019, published 2023).

Biological target: T1, CPS1 (Homo sapiens, UniProt P31327)
T1 construct: The full length, human CPS1 gene was cloned into pFastBac HTA; His6 (from the pFastBac HTA vector); made in house; host or cells: SF21 insect cells (baculovirus, Bac-to-bac)
T1 sequence (P31327 39-1500): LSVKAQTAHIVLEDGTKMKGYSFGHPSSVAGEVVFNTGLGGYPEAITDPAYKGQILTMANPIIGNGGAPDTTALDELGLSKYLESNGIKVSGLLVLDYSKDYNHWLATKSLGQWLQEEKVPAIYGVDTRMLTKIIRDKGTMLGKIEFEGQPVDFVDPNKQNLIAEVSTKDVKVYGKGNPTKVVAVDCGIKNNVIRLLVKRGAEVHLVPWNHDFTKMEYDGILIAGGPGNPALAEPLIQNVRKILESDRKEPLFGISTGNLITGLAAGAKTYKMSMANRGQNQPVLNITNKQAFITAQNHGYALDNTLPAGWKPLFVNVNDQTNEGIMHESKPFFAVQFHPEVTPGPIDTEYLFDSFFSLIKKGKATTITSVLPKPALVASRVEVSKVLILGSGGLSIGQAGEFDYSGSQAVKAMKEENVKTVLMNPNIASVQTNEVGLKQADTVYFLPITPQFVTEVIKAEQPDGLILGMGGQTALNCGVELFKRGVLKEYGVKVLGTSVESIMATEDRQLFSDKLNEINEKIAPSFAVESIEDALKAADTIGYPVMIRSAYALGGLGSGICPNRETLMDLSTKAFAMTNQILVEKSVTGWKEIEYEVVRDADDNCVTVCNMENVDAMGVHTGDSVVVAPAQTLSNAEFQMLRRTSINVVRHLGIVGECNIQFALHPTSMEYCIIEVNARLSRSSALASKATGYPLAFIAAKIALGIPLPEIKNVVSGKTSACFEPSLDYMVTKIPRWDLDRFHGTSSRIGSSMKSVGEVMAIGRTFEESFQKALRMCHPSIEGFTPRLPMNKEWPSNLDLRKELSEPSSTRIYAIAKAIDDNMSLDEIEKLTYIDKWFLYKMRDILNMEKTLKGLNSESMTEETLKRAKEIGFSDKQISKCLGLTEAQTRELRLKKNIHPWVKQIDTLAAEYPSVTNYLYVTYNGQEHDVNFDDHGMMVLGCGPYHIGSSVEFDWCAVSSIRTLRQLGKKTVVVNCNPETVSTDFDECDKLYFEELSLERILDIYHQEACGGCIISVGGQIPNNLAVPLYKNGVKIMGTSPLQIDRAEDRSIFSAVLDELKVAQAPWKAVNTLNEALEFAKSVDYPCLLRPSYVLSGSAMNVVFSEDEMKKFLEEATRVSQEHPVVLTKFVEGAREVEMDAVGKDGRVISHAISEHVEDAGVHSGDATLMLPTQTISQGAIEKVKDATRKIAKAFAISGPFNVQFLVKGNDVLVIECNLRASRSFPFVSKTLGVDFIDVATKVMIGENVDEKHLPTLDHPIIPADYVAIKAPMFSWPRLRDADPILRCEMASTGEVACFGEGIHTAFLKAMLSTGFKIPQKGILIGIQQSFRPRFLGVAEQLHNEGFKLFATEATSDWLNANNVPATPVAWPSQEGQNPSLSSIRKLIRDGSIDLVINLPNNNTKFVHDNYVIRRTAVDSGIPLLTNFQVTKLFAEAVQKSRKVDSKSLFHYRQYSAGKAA
Assay: ADP-Glo endpoint assay measuring the ATPase activity of CPS1
Assay type: biochemical
Conditions: geometric mean of a minimum of two values; 50 nM CPS1, 10 μM ATP, 0.2 mM NAG, 60 min at room temperature; read-out: ADPGlo IC50
Protocol: CPS1 was expressed and purified from SF21 insect cells. The full length, human CPS1 gene was cloned into pFastBac HTA and baculovirus was generated using the Bac-to-bac expression system from Invitrogen. P3 virus was used to infect SF21 insect cells at a density of 1.5E6 cells/mL at an MOI of 2. Cells were harvested by centrifugation after 60 hrs and the cell pellet resuspended in lysis buffer (50 mM glycyl glycine pH 7.4, 20 mM KCl, 1 mM TCEP, 10% glycerol and 20 mM imidazole with Roche protease inhibitor tablet) before being lysed with 40 strokes of a Dounce homogenizer on ice. The insoluble fraction of the lysate was then cleared by centrifugation at 30,000 rpm for 30 min. 40 mL of supernatant was mixed with 2 mL of Ni NTA beads for 45 min at 4° C. in a 50 mL conical tube.
The beads were washed with 40 mL of wash buffer (50 mM glycyl glycine pH 7.4, 500 mM NaCl, 1 mM TCEP, 10% glycerol and 50 mM imidazole) by centrifugation and resuspension of the beads three times. Bound CPS1 protein was eluted in 6 mL of elution buffer (50 mM glycyl glycine pH 7.4, 500 mM NaCl, 1 mM TCEP, 10% glycerol and 250 mM imidazole) three times. Elution fractions were combined and concentrated using an Amicon Ultra centrifugation filter with a 10,000 molecular weight cut off. Imidazole was removed by repeated concentration and resuspension in storage buffer in the filter device (50 mM glycyl glycine pH 7.4, 500 mM NaCl, 1 mM TCEP and 20% glycerol). CPS1 was concentrated to a final concentration of ˜3 mg/mL before being aliquoted, flash frozen in liquid nitrogen and stored at −80° C.
CPS1 activity was measured and compounds profiled in an endpoint assay measuring the ATPase activity of CPS1 using the ADP-Glo kit from Promega. 50 nM CPS1 was incubated alone or with varying amounts of tested compound from DMSO stocks in assay buffer (50 mM HEPES pH 7.0, 12.5 mM KHCO3, 1.5 mM (NH4)2SO3, 5 mM MgCl2, 50 mM KCl, 1 mM TCEP, 0.01% TritonX 100, 0.0025% BSA and 0.2 mM NAG) for 20 min in a 3 μL volume in a 384-well plate (Corning Cat#3820). The final concentration of DMSO was 0.04%. The reaction was initiated by the addition of 10 μM ATP, bringing the final volume to 6 μL. After 60 min at room temperature, the reaction was terminated with 3 μL ADP-Glo reagent and incubated at room temperature for 30 min. 3 μL of kinase detection reagent was then added and luminescent signal measured on an Envision plate reader after 30 min.

COc1ccc(C(=O)N2[C@H](C)CN(C(=O)c3ccc(OC(F)(F)F)cc3F)C[C@H]2C)c(F)c1 [Compound 1, ((2R,6R)-4-(2-Fluoro-4-(trifluoromethoxy)benzoyl)-2,6-dimethylpiperazin-1-yl)(2-fluoro-4-methoxyphenyl)methanone]
IC50: 672 nM

COc1ccc(C(=O)N2[C@H](C)CN(C(=O)c3ccc(OC)c(F)c3F)C[C@H]2C)c(F)c1 [Compound 2, ((2R,6R)-4-(2,3-Difluoro-4-methoxybenzoyl)-2,6-dimethylpiperazin-1-yl)(2-fluoro-4-methoxyphenyl)methanone]
IC50: 427 nM

COc1ccc(C(=O)N2[C@H](C)CN(C(=O)c3ccc4cc[nH]c4c3)C[C@H]2C)c(F)c1 [Compound 3, ((2R,6R)-4-(1H-Indole-6-carbonyl)-2,6-dimethylpiperazin-1-yl)(2-fluoro-4-methoxyphenyl)methanone]
IC50: 127 nM

COc1ccc(C(=O)N2[C@H](C)CN(C(=O)c3ccc(OC)c(F)c3)C[C@H]2C)c(F)c1 [Compound 4, ((2R,6R)-4-(3-Fluoro-4-methoxybenzoyl)-2,6-dimethylpiperazin-1-yl)(2-fluoro-4-methoxyphenyl)methanone]
IC50: 545 nM

CCOc1ccc(C(=O)N2C[C@@H](C)N(C(=O)c3ccc(OC)cc3F)[C@H](C)C2)c(F)c1 [Compound 5, ((2R,6R)-4-(4-Ethoxy-2-fluorobenzoyl)-2,6-dimethylpiperazin-1-yl)(2-fluoro-4-methoxyphenyl)methanone]
IC50: 139 nM

COc1ccc(C(=O)N2[C@H](C)CN(C(=O)c3ccc4c(c3)N(C)CC4)C[C@H]2C)c(F)c1 [Compound 6, ((2R,6R)-2,6-Dimethyl-4-(1-methylindoline-6-carbonyl)piperazin-1-yl)(2-fluoro-4-methoxyphenyl)methanone]
IC50: 7670 nM

COc1ccc(C(=O)N2[C@H](C)CN(C(=O)c3ccc4cc(C)[nH]c4c3)C[C@H]2C)c(F)c1 [Compound 7, ((2R,6R)-2,6-Dimethyl-4-(2-methyl-1H-indole-6-carbonyl)piperazin-1-yl)(2-fluoro-4-methoxyphenyl)methanone]
IC50: 171 nM

COc1ccc(C(=O)N2[C@H](C)CN(C(=O)c3ccc(NC(C)=O)cc3F)C[C@H]2C)c(F)c1 [Compound 8, N-(3-Fluoro-4-((3R,5R)-4-(2-fluoro-4-methoxybenzoyl)-3,5-dimethylpiperazine-1-carbonyl)phenyl)acetamide]
IC50: 2780 nM

COc1ccc(C(=O)N2[C@H](C)CN(C(=O)c3ccc(OC(F)F)cc3F)C[C@H]2C)c(F)c1 [Compound 9, ((2R,6R)-4-(4-(Difluoromethoxy)-2-fluorobenzoyl)-2,6-dimethylpiperazin-1-yl)(2-fluoro-4-methoxyphenyl)methanone]
IC50: 190 nM

COc1ccc(C(=O)N2[C@H](C)CN(C(=O)c3cc(F)c(OC)cc3F)C[C@H]2C)c(F)c1 [Compound 10, ((2R,6R)-4-(2,5-Difluoro-4-methoxybenzoyl)-2,6-dimethylpiperazin-1-yl)(2-fluoro-4-methoxyphenyl)methanone]
IC50: 710 nM

COc1ccc(C(=O)N2[C@H](C)CN(C(=O)c3ccc(OC)cc3Cl)C[C@H]2C)c(F)c1 [Compound 11, ((2R,6R)-4-(2-Chloro-4-methoxybenzoyl)-2,6-dimethylpiperazin-1-yl)(2-fluoro-4-methoxyphenyl)methanone]
IC50: 2810 nM

COc1ccc(C(=O)N2[C@H](C)CN(C(=O)c3ccc(F)cc3F)C[C@H]2C)c(F)c1 [Compound 12, ((2R,6R)-4-(2,4-Difluorobenzoyl)-2,6-dimethylpiperazin-1-yl)(2-fluoro-4-methoxyphenyl)methanone]
IC50: 2590 nM

COc1ccc(C(=O)N2[C@H](C)CN(C(=O)c3ccc4c[nH]nc4c3)C[C@H]2C)c(F)c1 [Compound 13, ((2R,6R)-4-(2H-Indazole-6-carbonyl)-2,6-dimethylpiperazin-1-yl)(2-fluoro-4-methoxyphenyl)methanone]
IC50: 711 nM

COc1ccc(C(=O)N2[C@H](C)CN(C(=O)c3ccc(C)cc3F)C[C@H]2C)c(F)c1 [Compound 14, ((3R,5R)-4-(2-Fluoro-4-methoxybenzoyl)-3,5-dimethylpiperazin-1-yl)(2-fluoro-4-methylphenyl)methanone]
IC50: 2200 nM

COc1ccc(C(=O)N2[C@H](C)CN(C(=O)c3c(F)cc(OC)cc3F)C[C@H]2C)c(F)c1 [Compound 15, ((2R,6R)-4-(2,6-Difluoro-4-methoxybenzoyl)-2,6-dimethylpiperazin-1-yl)(2-fluoro-4-methoxyphenyl)methanone]
IC50: 420 nM

COc1ccc(C(=O)N2[C@H](C)CN(C(=O)c3c(F)cc(SC)cc3F)C[C@H]2C)c(F)c1 [Compound 16, ((2R,6R)-4-(2,6-Difluoro-4-(methylthio)benzoyl)-2,6-dimethylpiperazin-1-yl)(2-fluoro-4-methoxyphenyl)methanone]
IC50: 552 nM

COc1ccc(C(=O)N2[C@H](C)CN(C(=O)c3cc(Cl)c4cc[nH]c4c3)C[C@H]2C)c(F)c1 [Compound 17, (4-Chloro-1H-indol-6-yl)((3R,5R)-4-(2-fluoro-4-methoxybenzoyl)-3,5-dimethylpiperazin-1-yl)methanone]
IC50: 526 nM

COc1ccc(C(=O)N2[C@H](C)CN(C(=O)c3ccc4c(c3)CCCO4)C[C@H]2C)c(F)c1 [Compound 18, Chroman-6-yl((3R,5R)-4-(2-fluoro-4-methoxybenzoyl)-3,5-dimethylpiperazin-1-yl)methanone]
IC50: 5870 nM

COc1ccc(C(=O)N2[C@H](C)CN(C(=O)c3ccc4cc[nH]c4n3)C[C@H]2C)c(F)c1 [Compound 19, ((2R,6R)-2,6-Dimethyl-4-(1H-pyrrolo[2,3-b]pyridine-6-carbonyl)piperazin-1-yl)(2-fluoro-4-methoxyphenyl)methanone]
IC50: 3280 nM

COc1ccc(C(=O)N2[C@H](C)CN(C(=O)c3ccc(N(C)C)cc3F)C[C@H]2C)c(F)c1 [Compound 20, ((2R,6R)-4-(4-(Dimethylamino)-2-fluorobenzoyl)-2,6-dimethylpiperazin-1-yl)(2-fluoro-4-methoxyphenyl)methanone]
IC50: 3960 nM
